The text below walks through data of US20080312301A1, “Substituted N-Benzo[D]Isoxazol-3-Yl-Amine Compounds as Inhibitors of Mglur5, Serotonin (5-Ht) and Noradrenaline Receptors, and Uses Thereof” (Gruenenthal GmbH, priority 2005, published 2008).

The target in the first test is T1, NA transporter (Rattus norvegicus, UniProt Q63380).
T1 construct: from tissue; host or cells: rat hypothalamus synaptosomes (P2 fraction)
T1 sequence (Q63380 1-617): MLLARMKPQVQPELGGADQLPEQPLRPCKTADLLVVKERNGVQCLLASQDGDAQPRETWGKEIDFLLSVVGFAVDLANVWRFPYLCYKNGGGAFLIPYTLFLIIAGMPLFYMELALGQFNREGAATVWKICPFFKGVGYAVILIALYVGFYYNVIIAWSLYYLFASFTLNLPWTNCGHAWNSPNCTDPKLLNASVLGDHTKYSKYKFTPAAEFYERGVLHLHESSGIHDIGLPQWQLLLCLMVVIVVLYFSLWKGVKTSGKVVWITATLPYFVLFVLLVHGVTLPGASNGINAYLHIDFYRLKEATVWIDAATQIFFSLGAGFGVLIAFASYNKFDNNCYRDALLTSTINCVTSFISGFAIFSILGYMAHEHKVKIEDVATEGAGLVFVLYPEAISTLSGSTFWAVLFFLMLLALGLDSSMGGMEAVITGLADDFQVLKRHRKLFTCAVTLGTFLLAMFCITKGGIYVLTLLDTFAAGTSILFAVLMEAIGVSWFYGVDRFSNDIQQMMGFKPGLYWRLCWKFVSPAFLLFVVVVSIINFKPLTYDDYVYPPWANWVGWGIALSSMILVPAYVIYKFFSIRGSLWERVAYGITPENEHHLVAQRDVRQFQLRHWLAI
Briefly: Noradrenaline (NA) uptake inhibition in rat brain synaptosomes (hypothalamus), [3H]-NA. The class given is biochemical.
Details: not given
An excerpt: I. Method for Determining the Noradrenaline and 5HT Uptake Inhibition:
For in vitro studies, synaptosomes were freshly isolated from rat brain areas as described in the publication “The isolation of nerve endings from brain” by E. G. Gray and V. P. Whittaker, J. Anatomy 96, pages 79-88, 1962. The corresponding literature description is introduced hereby as reference and forms part of the disclosure.
The tissue (hypothalamus for determining the noradrenaline uptake inhibition and medulla and pons for determining the 5HT uptake inhibition) was homogenized in ice-cold 0.32 M sucrose (100 mg of tissue/1 ml) in a glass homogenizer with Teflon pestle using five full up and down strokes at 840 revolutions/minute. The homogenate was centrifuged at 1000 g and at 4° C. for 10 minutes. After subsequent centrifugation at 17 000 g for 55 minutes, the synaptosomes (P2 fraction) are obtained and were resuspended in 0.32 M […] (0.5 ml/100 mg of the original weight).
The respective uptake was measured in a 96-well microtiter plate. The volume was 250 μl and incubation took place at room temperature (approx. 20-25° C.) under an O2 atmosphere.
The incubation time was 7.5 minutes for [^3H]-NA and 5 minutes for [^3H]-5-HT. The 96 samples were then filtered through a Unifilter GF/B® microtiter plate (Packard) and washed with […] of incubated buffer using a “Brabdel MPXRI-96T Cell Harvester”. The Unifilter GF/B plate was dried at 55° C. for 1 h. The plate was then sealed with a Back Seal® (Packard) and 35 μl of scintillation fluid were added per well (Ultima Gold®, Packard). After sealing with a top Seal® (Packard), the radioactivity was determined, after equilibrium had been reached (about 5 h), in a “Trilux 1450 Microbeta” (Wallac).
The following characteristic data were found for the NA transporter:
The amount of protein employed in the above determination corresponded to the value disclosed in the literature, as described for example in “Protein measurement with the folin phenol reagent”, Lowry et al., J. Biol. Chem., 193, 265-275, 1951. A detailed description of the method can also be found in the literature, for example from M. Ch. Frink, H.-H. Hennies, W. Engelberger, M. Haurand and B. Wilffert (1996) Arzneim.-Forsch./Drug Res. 46 (III), 11, 1029-1036. The corresponding literature descriptions are hereby introduced as reference and form part of the disclosure.
As for `CN(C)c1cccc2onc(NC(=O)c3ccc4ccccc4c3)c12` [Example 67, naphthalene-2-(4-dimethylaminobenzo[d]isoxazol-3-yl)carboxamide], the “NA uptake inhibition [%] conc. 10 μM” value worked out at 73%.

As to `CCCc1ccc(C(=O)Nc2noc3cccc(F)c23)cc1` [Example 58, N-(74-fluorobenzo[d]isoxazol-3-yl)-4-propylbenzamide], the “NA uptake inhibition [%] conc. 10 μM” value was 64%.

For `O=C(Nc1noc2c(F)cccc12)c1ccc2ccccc2c1` [Example 57, naphthalene-2-(7-fluorobenzo[d]isoxazol-3-yl)carboxamide], the “NA uptake inhibition [%] conc. 10 μM” value is listed as 67%.

With `O=C(Nc1noc2cccc(OCC(F)(F)F)c12)c1ccc2ccccc2c1` [Example 81, naphthalene-2-[4-(2,2,2-trifluoroethoxy)benzo[d]isoxazol-3-yl]carboxamide], the “NA uptake inhibition [%] conc. 10 μM” value was 65%.

As to `O=C(Nc1noc2ccc(Br)cc12)c1ccco1` [Example 50, furan-2-(5-bromobenzo[d]isoxazol-3-yl)carboxamide], the “NA uptake inhibition [%] conc. 10 μM” value is 66%.

For the molecule `Nc1cccc2onc(NC(=O)c3cccc4ccccc34)c12` [Example 11, naphthalene-1-(4-aminobenzo[d]isoxazol-3-yl)carboxamide], the “NA uptake inhibition [%] conc. 10 μM” value is 71%.

For `O=C(Nc1noc2cc(Cl)ccc12)c1ccc2ccccc2c1` [Example 41, naphthalene-2-(6-chlorobenzo[d]isoxazol-3-yl)carboxamide], the “NA uptake inhibition [%] conc. 10 μM” value was 61%.

Turning to `O=C(Nc1noc2c(F)cccc12)c1ccco1` [Example 63, furan-2-(7-fluorobenzo[d]isoxazol-3-yl)carboxamide], the “NA uptake inhibition [%] conc. 10 μM” value worked out at 64%.

As to `O=C(Nc1noc2ccc(Br)cc12)C1CC1` [Example 8, cyclopropane(5-bromobenzo[d]isoxazol-3-yl)carboxamide], the “NA uptake inhibition [%] conc. 10 μM” value worked out at 62%.

Regarding “furan-2-(4-dimethylaminobenzo[d]isoxazol-3-yl)carboxamide [Example 75]”, the “NA uptake inhibition [%] conc. 10 μM” value worked out at 64%.

Still in this test, the particulars now being: conc. 10 μM.
As a reminder, the inhibition is the drop in the measured response relative to a control, in per cent. Low values mean little suppression, high ones strong suppression. Regarding `O=C(Nc1noc2c(F)cccc12)c1cccnc1Cl` [Example 56, 2-chloro-N-(7-fluorobenzo[d]isoxazol-3-yl)nicotinamide], the inhibition at 10 µM was determined as 72%.

In the case of `CN(C)c1cccc2onc(NC(=O)C(C)(C)C)c12` [Example 72, N-(4-dimethylaminobenzo[d]isoxazol-3-yl)-2,2-dimethylpropionamide], 10 µM produced 66% inhibition.

`O=C(Nc1noc2cccc(OCC(F)(F)F)c12)c1cccc(C(F)(F)F)c1F` [Example 83, 2-fluoro-N-[4-(2,2,2-trifluoroethoxy)benzo[d]isoxazol-3-yl]-3-trifluoromethyl-benzamide] displayed an inhibition at 10 µM of 65%.

On to `CN(C)c1cccc2onc(NC(=O)c3ccc(F)c(F)c3F)c12` [Example 65, N-(4-dimethylaminobenzo[d]isoxazol-3-yl)-2,3,4-trifluorobenzamide], for which testing at 10 µM gave an inhibition of 68%.

With `CCCc1ccc(C(=O)Nc2noc3cccc(N(C)C)c23)cc1` [Example 68, N-(4-dimethylaminobenzo[d]isoxazol-3-yl)-4-propylbenzamide], the inhibition at 10 µM is 73%.

`COc1cccc2onc(NC(=O)C(c3ccccc3)c3ccccc3)c12` [Example 7, N-(4-methoxybenzo[d]isoxazol-3-yl)-2,2-diphenylacetamide]: the inhibition at 10 µM was 63%.

`CN(C)c1cccc2onc(NC(=O)c3cccnc3Cl)c12` [Example 66, 2-chloro-N-(4-dimethylaminobenzo[d]isoxazol-3-yl)nicotinamide] showed an inhibition at 10 µM of 64%.

Take `COc1cccc(C(=O)Nc2noc3cccc(N(C)C)c23)c1` [Example 71, N-(4-dimethylaminobenzo[d]isoxazol-3-yl)-3-methoxybenzamide]: the inhibition at 10 µM came to 65%.

Turning to `CN(C)c1cccc2onc(NC(=O)c3ccc(F)c(F)c3)c12` [Example 69, N-(4-dimethylaminobenzo[d]isoxazol-3-yl)-3,4-difluorobenzamide], at 10 µM the inhibition was 67%.

`O=C(Nc1noc2cc(Br)ccc12)c1ccc(F)cc1C(F)(F)F` [Example 43, N-(6-bromobenzo[d]isoxazol-3-yl)-4-fluoro-2-trifluoromethylbenzamide] returned an inhibition at 10 µM of 66%.

Consider `O=C(Nc1noc2cc(Br)ccc12)c1ccc(C(F)(F)F)c(F)c1` [Example 45, N-(6-bromobenzo[d]isoxazol-3-yl)-3-fluoro-4-trifluoromethylbenzamide], for which at 10 µM the inhibition was 64%.

In turn, `O=C(Nc1noc2cccc(OCC(F)(F)F)c12)c1cc(F)c(Cl)cc1Cl` [Example 78, 2,4-dichloro-5-fluoro-N-[4-(2,2,2-trifluoroethoxy)benzo[d]isoxazol-3-yl]benzamide] yielded an inhibition at 10 µM of 66%.

On to `O=C(Nc1noc2c(F)cccc12)C(c1ccccc1)c1ccccc1` [Example 62, N-(7-fluorobenzo[d]isoxazol-3-yl)-2,2-diphenylacetamide], for which 10 µM produced 63% inhibition.

`O=C(Nc1noc2cc(F)ccc12)c1cc(Cl)cc(Cl)c1` [Example 9, 3,5-dichloro-N-(6-fluorobenzo[d]isoxazol-3-yl)benzamide] came in with an inhibition at 10 µM of 67%.

In turn, `O=C(Nc1noc2cc(Br)ccc12)c1cc(F)c(Cl)cc1Cl` [Example 44, 2,4-dichloro-N-(6-bromobenzo[d]isoxazol-3-yl)-5-fluorobenzamide] showed an inhibition at 10 µM of 61%.

The molecule `O=C(Nc1noc2c(F)ccc(F)c12)c1ccccc1C(F)(F)F` [Example 51, 7-fluoro-N-(4-fluorobenzo[d]isoxazol-3-yl)-2-trifluoromethylbenzamide] came in with an inhibition at 10 µM of 71%.

`O=C(Nc1noc2c(F)cccc12)c1ccc(F)c(F)c1` [Example 59, 3,4-difluoro-N-(7-fluorobenzo[d]isoxazol-3-yl)benzamide]: testing at 10 µM gave an inhibition of 67%.

In turn, `O=C(Nc1noc2c(F)cccc12)c1ccc(C(F)(F)F)c(F)c1` [Example 53, 3-fluoro-N-(7-fluorobenzo[d]isoxazol-3-yl)-4-trifluoromethylbenzamide] had an inhibition at 10 µM of 69%.

The molecule `O=C(Nc1noc2cccc(OCC(F)(F)F)c12)c1ccc(C(F)(F)F)c(F)c1` [Example 79, 3-fluoro-N-[4-(2,2,2-trifluoroethoxy)benzo[d]isoxazol-3-yl]-4-trifluoromethyl-benzamide] yielded an inhibition at 10 µM of 62%.

Molecule `CN(C)c1cccc2onc(NC(=O)C(c3ccccc3)c3ccccc3)c12` [Example 74, N-(4-dimethylaminobenzo[d]isoxazol-3-yl)-2,2-diphenylacetamide] yielded an inhibition at 10 µM of 70%.

`O=C(Nc1noc2c(F)cccc12)c1cc(F)c(Cl)cc1Cl` [Example 52, 2,4-dichloro-5-fluoro-N-(7-fluorobenzo[d]isoxazol-3-yl)benzamide] returned an inhibition at 10 µM of 70%.

With `COc1cccc(C(=O)Nc2noc3c(F)cccc23)c1` [Example 61, N-(7-fluorobenzo[d]isoxazol-3-yl)-3-methoxybenzamide], 10 µM produced 66% inhibition.

Molecule `O=C(Nc1noc2cc(Br)ccc12)c1ccc(F)c(F)c1F` [Example 47, N-(6-bromobenzo[d]isoxazol-3-yl)-2,3,4-trifluorobenzamide] returned an inhibition at 10 µM of 66%.

`CN(C)c1cccc2onc(NC(=O)C(F)(F)C(F)(F)C(F)(F)F)c12` [Example 76, N-(4-dimethylaminobenzo[d]isoxazol-3-yl)-2,2,3,3,4,4,4-heptafluorobutyramide] had an inhibition at 10 µM of 67%.

Regarding `O=C(Nc1noc2c(F)cccc12)c1ccc(F)c(F)c1F` [Example 54, 2,3,4-trifluoro-N-(7-fluorobenzo[d]isoxazol-3-yl)benzamide], at 10 µM the inhibition was 63%.

Molecule `O=C(Nc1noc2c(F)cccc12)c1cccc(C(F)(F)F)c1F` [Example 60, 2-fluoro-N-(7-fluorobenzo[d]isoxazol-3-yl)-3-trifluoromethylbenzamide] showed an inhibition at 10 µM of 66%.

Turning to `CN(C)c1cccc2onc(NC(=O)c3cccc(C(F)(F)F)c3F)c12` [Example 70, N-(4-dimethylaminobenzo[d]isoxazol-3-yl)-2-fluoro-3-trifluoromethylbenzamide], testing at 10 µM gave an inhibition of 66%.

The molecule `O=C(Nc1noc2cc(Br)ccc12)c1cc(F)cc(C(F)(F)F)c1` [Example 46, N-(6-bromobenzo[d]isoxazol-3-yl)-3-fluoro-5-trifluoromethylbenzamide] showed an inhibition at 10 µM of 65%.

The molecule `Nc1cccc2onc(NC(=O)c3ccc([N+](=O)[O-])cc3)c12` [Example 10, N-(4-aminobenzo[d]isoxazol-3-yl)-4-nitrobenzamide] yielded an inhibition at 10 µM of 66%.
